What was measured:
IMP-1 = IMP-1 (Serratia marcescens, UniProt P52699); assay: biochemical; assay type: biochemical; conditions: CCF2-FA substrate, 2 hours at 25° C; read-out: IMP-1 IC50
In short: (§1)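 IC50 values derive from 4-parameter fits of percent inhibition against inhibitor concentration on semi-log axes. Activity was monitored by fluorescence with the CCF2-FA substrate after a 2-hour, 25° C incubation of compound, enzyme and substrate.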

NDM-1 = NDM-1 (Klebsiella pneumoniae, UniProt C7C422); assay: biochemical; assay type: biochemical; conditions: CCF2-FA substrate, 2 hours at 25° C; read-out: NDM-1 IC50
Sequence of NDM-1 (C7C422 whole entry, looked up, species assumed): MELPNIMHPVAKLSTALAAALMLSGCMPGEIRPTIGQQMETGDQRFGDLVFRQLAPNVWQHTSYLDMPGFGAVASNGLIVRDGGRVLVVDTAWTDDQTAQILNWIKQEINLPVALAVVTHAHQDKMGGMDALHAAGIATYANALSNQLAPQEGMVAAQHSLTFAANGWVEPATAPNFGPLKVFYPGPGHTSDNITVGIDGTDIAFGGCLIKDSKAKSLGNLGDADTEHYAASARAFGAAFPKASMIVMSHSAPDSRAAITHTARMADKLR
In short: as §1

VIM-1 = VIM-1 (Pseudomonas aeruginosa (strain ATCC 15692 / DSM 22644 / CIP 104116 / JCM 14847 / LMG 12228 / 1C / PRS 101 / PAO1), UniProt A0A0F7KYQ8); assay: biochemical; conditions: CCF2-FA substrate, 2 hours at 25° C
In short: as §1

[1] = test system: P. aeruginosa expressing IMP-1, efflux+ (MB9798); assay type: cell-based, Pseudomonas aeruginosa; conditions: for P. aeruginosa expressing IMP-1, efflux+ (MB9798) MITC95: imipenem at 2 μg/mL, in the presence of a class A, C, D serine β-lactamase inhibitor closely related to relebactam; for Efflux ratio: ratio MITC95 PA_9798/MITC95 PA_9799
Description: (§2) The strain background is Pseudomonas aeruginosa PAO1.

[2] = test system: Klebsiella pneumoniae expressing VIM-1 (IHMA599644); assay type: cell-based; conditions: with imipenem 1 μg/ml, 95% inhibition of bacterial growth; for Klebsiella pneumoniae MITC95: VIM-1 (IHMA599644)
In short: (§3)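 Restoration of imipenem susceptibility (1 μg/ml imipenem) was judged by absorbance after 22–24 h at 35° C. Test compound was added to bacteria suspended 1:100 in 1.1× CAMHB from overnight blood-agar cultures.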

[3] = test system: Serratia marcescens expressing IMP-1 (CL5741); assay type: cell-based; conditions: with imipenem 1 μg/ml, 95% inhibition of bacterial growth; for Serratia marcescens MITC95: IMP-1 (CL5741)
In short: as §3

[4] = test system: Escherichia coli expressing NDM-1 (CLB30005, CLB30016); assay type: cell-based; conditions: with imipenem 1 μg/ml, 95% inhibition of bacterial growth; for Escherichia coli MITC95: NDM-1 (CLB30016)
In short: as §3

[5] = test system: P. aeruginosa expressing IMP-1, efflux− (MB9799); assay: Efflux: concentration of MBL inhibitor which restores susceptibility to imipenem; assay type: cell-based, Pseudomonas aeruginosa; conditions: imipenem at 2 μg/mL, in the presence of a class A, C, D serine β-lactamase inhibitor closely related to relebactam
Description: as §2

Sequence of IMP-1 (P52699 whole entry, looked up, species assumed): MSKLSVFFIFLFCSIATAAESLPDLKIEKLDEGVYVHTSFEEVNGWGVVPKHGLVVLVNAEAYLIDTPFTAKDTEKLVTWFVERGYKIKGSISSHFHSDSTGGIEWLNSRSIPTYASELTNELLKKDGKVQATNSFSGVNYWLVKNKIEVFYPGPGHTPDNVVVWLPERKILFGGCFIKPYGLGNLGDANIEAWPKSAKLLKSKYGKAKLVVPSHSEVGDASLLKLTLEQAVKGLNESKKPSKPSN

Row | Compound | IC50 (IMP-1) [nM] | IC50 (NDM-1) [nM] | IC50 (VIM-1) [nM] | P. aeruginosa expressing IMP-1, efflux+ (MB9798) MITC95 [1] [µM] | Efflux ratio [1] | Klebsiella pneumoniae expressing VIM-1 (IHMA599644) MITC95 [2] [µM] | Serratia marcescens expressing IMP-1 (CL5741) MITC95 [3] [µM] | Escherichia coli expressing NDM-1 (CLB30016) MITC95 [4] [µM] | P. aeruginosa expressing IMP-1, efflux− (MB9799) MITC95 [5] [µM] | Klebsiella pneumoniae MITC95 [2] [µM] | Serratia marcescens MITC95 [3] [µM] | Escherichia coli MITC95 [4] [µM]
1 | NS(=O)(=O)c1c(S(=O)(=O)C2CNC2)ccc(-c2ccc3nccnc3c2)c1-c1nnn[nH]1.O=C(O)C(F)(F)F [Example 117, 3-((4-(quinoxalin-6-yl)-2-sulfamoyl-3-(1H-tetrazol-5-yl)phenyl)sulfonyl)azetidin-1-ium 2,2,2-trifluoroacetate] | 1.41 | 0.93 | 0.431 | 25 | 15.99 | 6.25 | 3.125 | 6.25 | 1.563 |  |  | 
2 | NCCS(=O)(=O)c1ccc(-c2cccc(N3CCCC3=O)n2)c(-c2nnn[nH]2)c1S(N)(=O)=O.O=C(O)C(F)(F)F [Example 147, 2-((4-(6-(2-oxopyrrolidin-1-yl)pyridin-2-yl)-2-sulfamoyl-3-(1H-tetrazol-5-yl)phenyl)sulfonyl)ethanaminium 2,2,2-trifluoroacetate] | 4.1 | 3.12 | 0.519 | 100 | 63.98 | 6.25 | 6.25 | 6.25 | 1.563 |  |  | 
3 | NCCS(=O)(=O)c1ccc(-c2cccc3cnccc23)c(-c2nnn[nH]2)c1S(N)(=O)=O.O=C(O)C(F)(F)F [Example 171] | 1.02 | 0.306 | 0.272 | 12.5 | 8.00 | 6.25 | 3.125 | 1.563 | 1.563 |  |  | 
4 | NCCS(=O)(=O)c1ccc(-c2cccc(N3CCS(=O)(=O)CC3)c2)c(-c2nnn[nH]2)c1S(N)(=O)=O.O=C(O)C(F)(F)F [Example 158, 2-((3′-(1,1-dioxidothiomorpholino)-3-sulfamoyl-2-(1H-tetrazol-5-yl)-[1,1′-biphenyl]-4-yl)sulfonyl)ethanaminium 2,2,2-trifluoroacetate] | 6.27 | 16.6 | 7.08 | 200 | 64.00 | 25 | 12.5 | 12.5 | 3.125 |  |  | 
5 | NCCS(=O)(=O)c1ccc(-c2ccc3[nH]ncc3c2)c(-c2nnn[nH]2)c1S(N)(=O)=O.O=C(O)C(F)(F)F [Example 167, 2-((4-(1H-indazol-5-yl)-2-sulfamoyl-3-(1H-tetrazol-5-yl)phenyl)sulfonyl)ethanaminium 2,2,2-trifluoroacetate] | 1.07 | 0.882 | 0.343 | 6.25 | 8.00 | 3.125 | 3.125 | 6.25 | 0.7813 |  |  | 
6 | Nc1c(NCCO)cccc1-c1ccc(S(=O)(=O)C2CNC2)c(S(N)(=O)=O)c1-c1nn[nH]n1 [Example 374, 2′-Amino-4-(azetidin-3-ylsulfonyl)-3′-((2-hydroxyethyl)amino)-2-(2H-tetrazol-5-yl)-[1,1′-biphenyl]-3-sulfonamide] | 2.71 | 1.42 | 2.57 | 6.25 | 2.00 |  |  |  | 3.125 | 6.25 | 3.125 | 3.125
7 | NS(=O)(=O)c1c(S(=O)(=O)C2CNC2)ccc(-c2cccc3c2CNC3=O)c1-c1nnn[nH]1.O=C(O)C(F)(F)F [Example 113, 3-((4-(1-oxoisoindolin-4-yl)-2-sulfamoyl-3-(1H-tetrazol-5-yl)phenyl)sulfonyl)azetidin-1-ium 2,2,2-trifluoroacetate] | 6.06 | 0.137 | 0.164 | 12.5 | 8.00 | 6.25 | 3.125 | 1.563 | 1.563 |  |  | 
8 | Nc1nc2c(-c3ccc(S(=O)(=O)C4CNC4)c(S(N)(=O)=O)c3-c3nn[nH]n3)cccc2[nH]1 [Example 43, 3-(2-amino-1H-benzo[d]imidazol-4-yl)-6-(azetidin-3-ylsulfonyl)-2-(2H-tetrazol-5-yl)benzenesulfonamide] | 0.828 | 0.0835 | 0.258 | 0.6081 | 0.95 | 1.151 | 0.7982 | 0.2902 | 0.6406 |  |  | 
9 | Nc1ccc2c(-c3ccc(S(=O)(=O)C4CNC4)c(S(N)(=O)=O)c3-c3nnn[nH]3)ccnc2n1 [Example 27, 3-(7-amino-1,8-naphthyridin-4-yl)-6-(azetidin-3-ylsulfonyl)-2-(1H-tetrazol-5-yl)benzenesulfonamide] | 1.75 | 0.185 | 0.33 | 6.25 | 4.00 | 3.125 | 3.125 | 6.25 | 1.563 |  |  | 
10 | CSc1ccc(-c2ccc(C3CCNCC3)cc2)c(-c2nnn[nH]2)c1S(N)(=O)=O [Example 234, 4-(Methylthio)-4′-(piperidin-4-yl)-2-(1H-tetrazol-5-yl)-[1,1′-biphenyl]-3-sulfonamide] | 4.37 | 15.7 | 13.9 | 50 | 64.00 | 12.5 | 3.125 | 3.125 | 0.7813 |  |  | 
11 | NCCNC(=O)c1cccc(-c2ccc(S(=O)(=O)CCN)c(S(N)(=O)=O)c2-c2nn[nH]n2)c1N [Example 378, 2-amino-N-(2-aminoethyl)-4′-((2-aminoethyl)sulfonyl)-3′-sulfamoyl-2′-(2H-tetrazol-5-yl)-[1,1′-biphenyl]-3-carboxamide] | 5.1 | 3.72 | 0.544 | 1.563 | 2.00 |  |  |  | 0.7813 | 1.563 | 0.7813 | 0.7813

From patent US10227331B2 (priority 2015, dated 2019)
